# Values quoted from earlier work, collected in US20120202839A1, “METHODS AND COMPOSITIONS FOR DETERRING ABUSE OF ORALLY ADMINISTERED PHARMACEUTICAL PRODUCTS” (priority 2004, published 2012).
# Conditions: oral ingestion; typical threshold
compound,measurement,value
O=S(=O)([O-])[O-].[Zn+2] [ZINC SULFATE],"amount ingested above which emesis is induced, typically",more than 0.6 gm
